The record followed here is PMC6600881 (Gut Pathogens, 2019).

SMILES strings stand for the structures.

The target of this assay is T1, P. aeruginosa PGDH (SerA) (Pseudomonas aeruginosa, UniProt Q9I6H5).
T1 construct: full-length ORF, N-terminal GST fusion (pGEX-6P-1), GST cut off on resin by protease, expressed in E. coli BL21, 44 kDa
T1 sequence (Q9I6H5 1-409): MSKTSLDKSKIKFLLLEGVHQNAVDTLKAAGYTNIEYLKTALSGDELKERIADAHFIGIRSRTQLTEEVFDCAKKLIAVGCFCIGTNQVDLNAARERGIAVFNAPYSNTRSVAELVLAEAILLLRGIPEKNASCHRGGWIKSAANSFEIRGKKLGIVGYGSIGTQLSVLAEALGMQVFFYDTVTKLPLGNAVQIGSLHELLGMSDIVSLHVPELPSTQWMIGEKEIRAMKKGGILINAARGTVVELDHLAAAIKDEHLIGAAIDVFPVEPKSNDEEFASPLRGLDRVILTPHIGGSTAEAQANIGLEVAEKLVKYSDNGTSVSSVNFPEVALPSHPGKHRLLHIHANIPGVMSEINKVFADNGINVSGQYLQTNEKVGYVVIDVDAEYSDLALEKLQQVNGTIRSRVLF
Kind of assay: NADH formation at […] nm. Type of assay: biochemical.

Regarding `N[C@@H](CO)C(=O)O` [L-serine], half-maximal inhibition (IC50) was put at 0.63 mM.
Consider `N[C@H](CO)C(=O)O` [D-serine], for which the midpoint of inhibition, the IC50, lay at 76 mM.
